pIC50: −log10 of the molar value.
Key:
MAPK14 (human) = MAPK14 (human) (UniProt Q16539); experiment: In vitro Inhibition of TNF-alpha Production in PBMC Cells
MAPK14 (BALB/cJ mice) = experiment: In vivo Inhibition of LPS-induced TNF-alpha Production; details: dose or concentration not given here
MAPK14 = MAPK14 (UniProt Q16539); experiment: In vitro Inhibition of MAPK14 Kinase Activity
Sequence of MAPK14 (Q16539 whole entry, looked up): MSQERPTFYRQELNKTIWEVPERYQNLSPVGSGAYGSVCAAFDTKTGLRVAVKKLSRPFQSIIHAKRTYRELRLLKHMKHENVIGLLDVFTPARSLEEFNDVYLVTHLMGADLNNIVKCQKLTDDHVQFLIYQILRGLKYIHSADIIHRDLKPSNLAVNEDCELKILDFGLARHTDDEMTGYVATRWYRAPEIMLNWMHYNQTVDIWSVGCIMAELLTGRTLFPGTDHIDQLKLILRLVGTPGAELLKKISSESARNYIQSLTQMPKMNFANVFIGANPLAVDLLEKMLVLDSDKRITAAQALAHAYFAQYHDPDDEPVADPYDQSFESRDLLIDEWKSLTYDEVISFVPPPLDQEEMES

Sequence of MAPK14 (human) (Q16539 whole entry, looked up): as above

Structure (SMILES) | pIC50 (MAPK14 (human)) | pIC50 (MAPK14) | inhibition (MAPK14 (BALB/cJ mice))
Fc1ccc(-c2c[nH]c(CN3CCc4ccccc4C3)c2-c2ccncc2)cc1 | 7.40 | 5.70 | 63%
Cn1c(N2CCCC2)c(-c2ccncc2)c(-c2ccc(F)cc2)c1C(C)(C)O | 6.72 | 5.70 | 37.7%
Cn1c(C(=O)C2CC2)c(-c2ccc(F)cc2)c(-c2ccncc2)c1N1CCN(C(=O)C2CC2)CC1 | 7.44 | 5.00 | –
CCCNC(=O)c1c(-c2ccc(F)cc2)c(-c2ccncc2)c(N2CCNCC2)n1C | 5.00 | 5.00 | –
CCOC(=O)c1c(-c2cc(F)cc(F)c2)c(-c2ccncc2)c(Br)n1C | 5.57 | < 5.00 | -36%
COC(=O)c1c(-c2ccc(F)cc2)c(-c2ccncc2)c(N2CCNCC2)n1C | 7.48 | 5.00 | 73%
COC(=O)c1c(-c2ccc(F)cc2)c(-c2ccncc2)c(N2CCN(C)CC2)n1C | 7.02 | 5.70 | 89%
COC(=O)c1c(-c2ccncc2)c(-c2ccc(F)cc2)c(C#CCN2CCOCC2)n1C | 6.10 | – | 47%
COC(=O)C(=O)c1c(-c2ccc(F)cc2)c(-c2ccncc2)c(N2CCNCC2)n1C | 7.55 | 5.00 | 52%
COC(=O)c1c(-c2ccncc2)c(-c2ccc(F)cc2)c(Br)n1C | 6.74 | – | -6%

Continued by rising pIC50 (MAPK14 (human)), values first:

pIC50 (MAPK14 (human)) | pIC50 (MAPK14) | Structure (SMILES) | inhibition (MAPK14 (BALB/cJ mice))
6.81 | 5.70 | CC(=O)N1CCN(c2c(-c3ccncc3)c(-c3ccc(F)cc3)c(C#N)n2C)CC1 | 81%
6.93 | < 5.00 | COC(=O)c1c(-c2ccc(F)cc2)c(-c2ccncc2)c(Nc2ccc(N(C)C)cc2)n1C | 15%
7.10 | 5.70 | CN1CCN(c2c(-c3ccncc3)c(-c3ccc(F)cc3)c(C#N)n2C)CC1 | 47%
7.29 | 5.00 | COC(=O)c1c(-c2ccc(F)cc2)c(-c2ccncc2)c(N)n1C | 53.9%
7.33 | 5.00 | COC(=O)c1c(-c2ccc(F)cc2)c(-c2ccncc2)c(N2CCOCC2)n1C | -41%
7.37 | 5.70 | CC(=O)c1c(-c2ccc(F)cc2)c(-c2ccncc2)c(N2CCN(C(C)=O)CC2)n1C | –
7.40 | 5.00 | CC(=O)c1c(-c2ccc(F)cc2)c(-c2ccncc2)c(N2CCNCC2)n1C | 39%
7.77 | 5.00 | COC(=O)c1c(-c2ccc(F)cc2)c(-c2ccncc2)c(N2CCCC2)n1C | -38%
8.40 | 5.00 | CCCc1c(-c2ccnc(N[C@@H](C)c3ccccc3)n2)c(-c2ccc(F)cc2)cn1CCN1CCOCC1 | -35%
